The assay relates to Oryctolagus cuniculus. Put plainly: Compound was evaluated for ocular hypotensive effects (intraocular pressure, IOP) by administering 0.5% of the drug twice daily. Format: functional, Eye.

In turn, `CC(C)(C)NC[C@H](O)COc1nsnc1N1CCOCC1` [TIMOLOL] had an Activity of 21%.
